Patent US8410284B2, “Cyclic benzimidazole derivatives useful as anti-diabetic agents” (Merck Sharp & Dohme Corp, priority 2008, dated 2013)
Where a name gives a salt, the structure may show the parent alone.

Key:
[1] = test system: ob/ob and db/db mice; settings: following 8 weeks of administration; cited from earlier work
[2] = biological target: recombinant human AMPK complex 1 (containing α1β1γ1) (Homo sapiens, UniProt Q13131+Q9Y478); test: In vitro AMPK activation assay (AMPKSAMSF); format: biochemical; settings: recombinant human AMPK complex 1 (α1β1γ1); for Emax: read-out: maximum AMP activation
Experimental: AMPKSAMSF (In Vitro AMPK Activation Assay)
The recombinant human AMPK complex 1 (containing α1β1γ1) was obtained from baculovirus expression system. Recombinant viruses were generated by cotransfection of AMPK/pBacPak9 clones with Baculogold baculovirus DNA (Pharmingen) in spodoptera frugiperda 21 cells according to the manufacturer's instructions. Each round of virus amplification was performed for 5 days in Grace's medium containing 10% serum. Virus that had been subjected to three rounds of amplification was used for all protein production procedures. To express the AMPK complex, sf21 cells were adapted to serum free medium (SF900 II, Invitrogen) by sequential dilution from serum containing stocks into SF900 II medium and maintained in shaker flasks at 90 rpm at 27° C. The recombinant AMPK enzyme complex was produced by triple infection, one recombinant virus for each of the subunits, in sf21 cells under serum free conditions. Cells were infected in log phase, 1×10^6 cells/ml, at a multiplicity of infection of ˜5. Cells were harvested by centrifugation at 10,000×g for 15 minutes after 72 hours of infection with viruses. The insect cell pellet from 2 liters of culture was resuspended in 50 ml lysis buffer (20 mM Tris-HCl, 50 mM NaCl, 50 mM NaF, 30 mM Na PPi, 0.25 M sucrose, 10 mM ZnCl2, 2 mM DTT, 0.4 mg/ml digitonin) and subjected to two cycles of freeze-thaw lysis in a dry-ice ethanol bath. Insoluble material was removed by centrifugation at 10,000×g and the supernatant was fractionated with use of polyethylene glycol (PEG). The protein fraction precipitating between 2.5 and 6% PEG was used for further purification using a Blue-Sepharose step (Zhou et al, J. Clin. Invest. 108, 1167-1174, 2001).
The total in vitro AMPK activation assay volume is 50 μl in a 96-well plate. The reaction mixture contained 100 μM ATP (0.5 μCi ^33P-ATP per reaction), and 50 μM SAMS (HMRSAMSGLHLVKRR) in a buffer (20 mM HEPES, pH 7.0, 5 mM MgCl2, 0.01% Brij35). The reaction was initiated with addition of the enzyme. After 30-minute incubation at 30° C., the reaction was stopped by addition of 80 μl 1% H3PO4. Aliquots (100 μl) were transferred to 96-well MultiScreen plates (MAPHNOB50; Millipore Corp., Bedford, Mass., USA). The plate was washed three times with 1% H3PO4 followed by detection in a Top-count. The counts per minute from the basal activity (the reaction without activator) was subtracted from each well and the data were expressed as % maximum AMP activation followed by EC50 calculation.

Chain of recombinant human AMPK complex 1 (containing α1β1γ1) (Q13131 whole entry): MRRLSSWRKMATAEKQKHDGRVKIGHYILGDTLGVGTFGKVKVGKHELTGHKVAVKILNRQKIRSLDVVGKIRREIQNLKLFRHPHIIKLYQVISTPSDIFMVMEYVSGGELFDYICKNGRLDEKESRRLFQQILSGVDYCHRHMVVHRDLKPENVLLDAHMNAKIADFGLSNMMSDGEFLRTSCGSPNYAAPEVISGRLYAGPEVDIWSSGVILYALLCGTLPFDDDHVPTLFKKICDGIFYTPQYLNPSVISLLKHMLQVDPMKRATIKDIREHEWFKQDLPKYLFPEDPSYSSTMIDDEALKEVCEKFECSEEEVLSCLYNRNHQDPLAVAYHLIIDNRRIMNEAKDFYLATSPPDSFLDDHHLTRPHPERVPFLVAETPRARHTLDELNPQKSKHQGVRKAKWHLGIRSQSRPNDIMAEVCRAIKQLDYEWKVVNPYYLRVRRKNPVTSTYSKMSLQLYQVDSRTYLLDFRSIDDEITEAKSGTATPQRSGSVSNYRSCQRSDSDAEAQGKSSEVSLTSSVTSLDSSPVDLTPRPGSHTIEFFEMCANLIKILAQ
Chain of recombinant human AMPK complex 1 (containing α1β1γ1) (Q9Y478 whole entry): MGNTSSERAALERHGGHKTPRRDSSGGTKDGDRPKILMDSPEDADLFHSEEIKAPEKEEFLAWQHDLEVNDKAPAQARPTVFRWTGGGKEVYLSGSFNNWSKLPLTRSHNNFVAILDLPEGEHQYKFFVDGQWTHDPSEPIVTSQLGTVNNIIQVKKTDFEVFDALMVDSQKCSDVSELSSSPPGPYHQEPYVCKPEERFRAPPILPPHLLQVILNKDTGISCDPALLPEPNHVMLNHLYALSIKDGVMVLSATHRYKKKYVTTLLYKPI
Chain of recombinant human AMPK complex 1 (containing α1β1γ1) (P54619 whole entry partner): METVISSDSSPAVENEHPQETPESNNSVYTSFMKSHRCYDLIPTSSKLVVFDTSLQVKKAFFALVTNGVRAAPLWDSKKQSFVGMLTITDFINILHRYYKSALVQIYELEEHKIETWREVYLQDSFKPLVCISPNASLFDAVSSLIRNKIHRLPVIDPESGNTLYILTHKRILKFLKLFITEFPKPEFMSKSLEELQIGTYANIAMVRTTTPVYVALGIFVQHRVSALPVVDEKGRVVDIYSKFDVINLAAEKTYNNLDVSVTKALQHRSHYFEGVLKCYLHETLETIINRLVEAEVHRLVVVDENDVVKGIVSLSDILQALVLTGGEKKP

| melting point [°C] | Structure (SMILES) | Emax [2] [%] | also measured |
| --- | --- | --- | --- |
| 225 to 228 | Cc1ccc(Oc2nc3cc(-c4ccc(-c5ccccc5)cc4)c(Cl)cc3[nH]2)cc1P(=O)(O)O (as salt: salt) [Example 1, ((5-(4-Biphenyl)-6-chloro-1H-benzimidazol-2-yl)oxo)-4-methylphen-3-ylphosphonic acid] | – | – |
| – | NC(=O)c1ncn([C@@H]2O[C@H](CO)[C@@H](O)[C@H]2O)c1N [AICAR] | – | blood glucose reduction [1]: 35% |
| 199 to 205 | O=P(O)(O)c1cccc(Oc2nc3cc(-c4ccc(-c5ccccc5)cc4)c(Cl)cc3[nH]2)c1 [Example 2, ((5-(4-Biphenyl)-6-chloro-1H-benzimidazol-2-yl)oxo)phen-3-ylphosphonic acid] | > 80 | EC50 [2]: 2.5 nM; % Maximum AMP Activation of human AMPK Complex 1 ([2]; basal activity subtracted): 205% |
| > 220 | Cc1ccc(Cc2nc3cc(-c4ccc(-c5ccccc5)cc4)c(Cl)cc3[nH]2)cc1P(=O)(O)O [Example 11, {5-[(5-biphenyl-4-yl-6-chloro-1H-benzimidazol-2-yl)methyl]-2-methylphenyl}phosphonic acid] | > 80 | – |
| – | O=[P@@]1(c2cccc(Oc3nc4cc(-c5ccc(-c6ccccc6)cc5)c(Cl)cc4[nH]3)c2)OCC[C@@H](c2ccncc2)O1 [Example 25, Trans-5-Biphenyl-4-yl-6-chloro-2-trans-[3-((S)-2-oxo-4-pyridin-4-yl-2lambda*5*-[1,3,2]dioxophosphinan-2-yl)-phenoxy]-1H-benzoimidazole] | > 80 | – |
| – | O=P1(c2cccc(Oc3nc4cc(-c5ccc(-c6ccccc6)cc5)c(Cl)cc4[nH]3)c2)OCCC(c2ccncc2)O1 [Example 26, Cis-5-Biphenyl-4-yl-6-chloro-2-[3-((S)-2-oxo-4-pyridin-4-yl-2lambda*5*-[1,3,2]dioxophosphinan-2-yl)-phenoxy]-1H-benzoimidazole] | > 80 | – |
| – | CCOC(=O)CNP(=O)(NCC(=O)OCC)c1cc(Oc2nc3cc(-c4ccc5c(ccn5C)c4)c(Cl)cc3[nH]2)ccc1C [Example 27, {[6-Chloro-5-(1-methyl-1H-indol-5-yl)-1-H-benzimidazol-2-yl]oxo}-4-methylphen-3-ylphosphono-bis-2-amino-ethanoic acid ethyl ester] | > 80 | – |
| – | CCOC(=O)CNP(=O)(NCC(=O)OCC)c1cc(Oc2nc3cc(-c4ccc(C5CCCCC5)cc4)c(Cl)cc3[nH]2)ccc1C [Example 28, {[6-Chloro-5-(4-cyclohexylphenyl)-1H-benzoimidazol-2-yl]oxo}-4-methylphen-3-ylphosphono-bis-2-amino-ethanoic acid ethyl ester] | > 80 | – |
